According to patent publication US20260240832A1, “USE OF NITROXOLINE COMPOUND IN ENHANCING EFFECT OF ANTIBACTERIAL AGENT” (Jiangsu Yahong Meditech Co., Ltd., priority 2022, published 2026):
Like-named read-outs stand apart in the source and are kept apart here.

Columns and labels:
Format in all cases: cell-based
[1] = system: drug-resistant Escherichia coli 1864; test: MIC of antibiotics against drug-resistant Escherichia coli II (resistance profile of the strain)
From the text: (§1) 1 strain of drug-resistant Escherichia coli II, namely drug-resistant Escherichia coli 1864, is provided by the School of Pharmacy of Fudan University. This strain is resistant to fluoroquinolone antibiotics (such as levofloxacin), non-fluoroquinolone antibiotics (such as nalidixic acid, nemofloxacin), aminoglycoside antibiotics (such as gentamicin), glycopeptide antibiotics (such as vancomycin) and carbapenem antibiotics (such as meropenem).

[2] = system: drug-resistant Escherichia coli I (a strain resistant to carbapenem antibiotics); test: Chessboard microbroth dilution MIC/FIC, compound A in combination with meropenem; settings: for MIC: Escherichia coli, read-out: Compound A MIC alone; for Compound A MIC in combination: with meropenem
From the text: (§2) This experiment is designed to determine the minimum inhibitory concentration (MIC) of compound A in combination with meropenem against drug-resistant Escherichia coli I (a strain resistant to carbapenem antibiotics) and drug-resistant Escherichia coli II (a strain resistant to fluoroquinolone antibiotics, non-fluoroquinolone antibiotics, aminoglycoside antibiotics, glycopeptide antibiotics and carbapenem antibiotics), and to calculate the fractional inhibitory concentration (FIC) index.
3 strains of drug-resistant Escherichia coli I, namely drug-resistant Escherichia coli 18-W09-093, drug-resistant Escherichia coli 18-W37-025, and drug-resistant Escherichia coli 18-W37-032, are provided by Shanghai Junji Medical Laboratory Co., Ltd. These 3 strains are all resistant to carbapenem antibiotics (e.g., meropenem).
(§3) According to the recommendation of the Clinical and Laboratory Standards Institute (CLSI), the microbroth dilution method designed by the chessboard method was used to determine the minimum inhibitory concentration (MIC) of compound A in combination with meropenem against the above strains, and the fractional inhibitory concentration (FIC) index was calculated.
(§4) Compound A was dissolved in dimethyl sulfoxide to obtain a stock solution I with a concentration of 1280 mg/L. The stock solution I was diluted to 512 mg/L with sterile water to obtain a gradient dilution first tube solution I. The gradient dilution first tube solution I was subjected to 1:1 gradient dilution with sterile water to obtain a working solution I with a gradient range of 512 to 0.25 mg/L.
(§5) Meropenem was dissolved in sterile water to obtain a stock solution II with a concentration of 5120 mg/L. The stock solution II was diluted to 1024 mg/L with sterile water to obtain a gradient dilution first tube solution II. The gradient dilution first tube solution II was subjected to 1:1 gradient dilution with sterile water to obtain a working solution II with a gradient range of 1024 to 0.5 mg/L.
(§6) According to the method in Example 1, a drug sensitive plate was prepared with working solution I and working solution II, and the specific process will not be repeated here.
(§7) (2) The culture medium of the bacterial solution: Cation-Adjusted Mueller-Hinton Broth (CAMHB), a product of BBL, USA, batch number 9015952.
(§8) (3) Formulation method of bacterial solution: According to the direct colony suspension method, the test bacteria cultured overnight were prepared into a 0.5 McFarland turbidity tube using physiological saline. Then, the resulting solution was dilute 100 times with the above culture medium. 100 μL of the resulting bacterial solution was mixed well with the solution (100 μL) in each well of the drug sensitivity plate, and the final inoculation amount was 10^5 CFU/mL.
(§9) (4) Culture conditions: Culturing at 35±2° C. for 20 hours in air.
(§10) (1) The experimental results were determined according to the standard of CLSI 2019 M100 29th edition.
(§11) wherein: FIC≤0.5 indicates synergistic effect; 0.5<FIC≤1.0 indicates additive effect; 1<FIC≤2.0 indicates irrelevant effect; and FIC>2 indicates antagonistic effect.

[3] = system: drug-resistant Escherichia coli II (drug-resistant Escherichia coli 1864); test: as above
From the text: as §2, §1, §3, §4, §5, §6, §7, §8, §9, §10, §11

[4] = system: carbapenem-resistant Acinetobacter baumannii; test: as above; settings: for MIC: Acinetobacter baumannii, read-out: Compound A MIC alone; for Compound A MIC in combination: with meropenem
From the text: This experiment is designed to determine the minimum inhibitory concentration (MIC) of compound A in combination with meropenem against carbapenem-resistant Acinetobacter baumannii and to calculate the fractional inhibitory concentration (FIC) index.
Test bacteria: 10 strains of carbapenem-resistant Acinetobacter baumannii are clinically isolated strains, and are provided by Shanghai Junji Medical Laboratory Co., Ltd.
as §3
Compound A was dissolved in dimethyl sulfoxide to obtain a stock solution I with a concentration of 51200 mg/L. The stock solution I was subjected to 1:1 gradient dilution with dimethyl sulfoxide to obtain a dilution solution with a concentration range of 51200 to 25 mg/L. The corresponding concentrations were added to sterile water for 100-fold dilution to obtain working solution I with a concentration range of 512 to 0.25 mg/L.
Meropenem was dissolved in sterile water to obtain a stock solution with a concentration of 5120 mg/L. The […] stock solution was subjected to 1:1 gradient dilution with sterile water to obtain a working solution II with a concentration range of 512 to 0.25 mg/L.
as §6, §7, §8, §9
(1) The experimental results were determined according to the standard of CLSI 2020 M100 30th edition.
as §11

[5] = strain 18-W09-093, compound A + meropenem
[6] = strain 18-W37-025, compound A + meropenem
[7] = strain 18-W37-032, compound A + meropenem
[8] = strain 1864, compound A + meropenem
[9] = strain No. 1, compound A + meropenem
[10] = strain No. 2, compound A + meropenem
[11] = strain No. 3, compound A + meropenem
[12] = strain No. 4, compound A + meropenem
[13] = strain No. 5, compound A + meropenem
[14] = strain No. 6, compound A + meropenem
[15] = strain No. 7, compound A + meropenem
[16] = strain No. 8, compound A + meropenem
[17] = strain No. 9, compound A + meropenem
[18] = strain No. 10, compound A + meropenem
[19] = drug-resistant Escherichia coli 1864, read-out: MIC

Gentamycin showed an MIC ([1]; drug-resistant Escherichia coli 1864) of 64 µg/mL.

In the case of `CN[C@H](CC(C)C)C(=O)N[C@H]1C(=O)N[C@@H](CC(N)=O)C(=O)N[C@H]2C(=O)N[C@H]3C(=O)N[C@H](C(=O)N[C@H](C(=O)O)c4cc(O)cc(O)c4-c4cc3ccc4O)[C@H](O)c3ccc(c(Cl)c3)Oc3cc2cc(c3O[C@@H]2O[C@H](CO)[C@@H](O)[C@H](O)[C@H]2O[C@H]2C[C@](C)(N)[C@H](O)[C@H](C)O2)Oc2ccc(cc2Cl)[C@H]1O` [Vancomycin], the MIC ([1]; Escherichia coli) is reported as > 64 µg/mL.

With `CCn1cc(C(=O)O)c(=O)c2ccc(C)nc21` [Nalidixic acid] the MIC ([1]; Escherichia coli) was > 64 µg/mL.

`O=[N+]([O-])c1cc(Cl)c2cccnc2c1O` [Compound A, 5-chloro-7-nitro-8-hydroxyquinoline] showed an MIC ([2]; strain 18-W09-093) of 32 µg/mL, an MIC ([2]; strain 18-W37-025) of 32 µg/mL and an MIC ([2]; strain 18-W37-032) of 32 µg/mL. The “effect of the combination (summary of Table 4)” value ([2]; compound A + meropenem, drug-resistant Escherichia coli I) was “synergistic effect (FIC≤0.5 indicates synergistic effect)”, the “change of the MIC of meropenem by the combination” value ([2]; compound A + meropenem, drug-resistant Escherichia coli I and II) was “significantly reduce” and the FIC index [2, 5] was 0.258. For the same compound, the Results [2, 5] was “Synergistic”, the “Compound A MIC in combination” value ([2]; strain 18-W09-093) was 8 µg/mL and the FIC index [2, 6] was 0.258. For the same compound, the Results [2, 6] was “Synergistic”, the “Compound A MIC in combination” value ([2]; strain 18-W37-025) was 8 µg/mL and the FIC index [2, 7] was 0.281. The Results [2, 7] was “Synergistic”, the “Compound A MIC in combination” value ([2]; strain 18-W37-032) was 8 µg/mL and the MIC ([3]; Escherichia coli, strain 1864, read-out: Compound A MIC alone) was 4 µg/mL. The “effect of the combination (summary of Table 4)” value ([3]; compound A + meropenem, drug-resistant Escherichia coli II) was “synergistic effect (FIC≤0.5 indicates synergistic effect)”, the FIC index [3, 8] was 0.14 and the Results [3, 8] was “Synergistic”. The “Compound A MIC in combination” value ([3]; strain 1864, with meropenem) was 0.5 µg/mL, the MIC ([4]; strain No. 1) was 32 µg/mL and the MIC ([4]; strain No. 2) was 16 µg/mL. It also gave an MIC ([4]; strain No. 3) of 16 µg/mL, an MIC ([4]; strain No. 4) of 16 µg/mL and an MIC ([4]; strain No. 5) of 16 µg/mL. It also gave an MIC ([4]; strain No. 6) of 16 µg/mL, an MIC ([4]; strain No. 7) of 16 µg/mL and an MIC ([4]; strain No. 8) of 8 µg/mL. The MIC ([4]; strain No. 9) was 8 µg/mL, the MIC ([4]; strain No. 10) was 16 µg/mL and the “change of the MIC of meropenem by the combination” value ([4]; compound A + meropenem) was “significantly reduce”. The “effect of the combination (summary of Table 5)” value ([4]; compound A + meropenem) was “synergistic effect (FIC≤0.5 indicates synergistic effect)”, the FIC index [4, 9] was 0.127 and the Results [4, 9] was “Synergistic”. For the same compound, the “Compound A MIC in combination” value ([4]; strain No. 1) was 0.06 µg/mL, the FIC index [4, 10] was 0.129 and the Results [4, 10] was “Synergistic”. For the same compound, the “Compound A MIC in combination” value ([4]; strain No. 2) was 0.06 µg/mL, the FIC index [4, 11] was 0.129 and the Results [4, 11] was “Synergistic”. For the same compound, the “Compound A MIC in combination” value ([4]; strain No. 3) was 0.06 µg/mL, the FIC index [4, 12] was 0.129 and the Results [4, 12] was “Synergistic”. For the same compound, the “Compound A MIC in combination” value ([4]; strain No. 4) was 0.06 µg/mL, the FIC index [4, 13] was 0.129 and the Results [4, 13] was “Synergistic”. For the same compound, the “Compound A MIC in combination” value ([4]; strain No. 5) was 0.06 µg/mL, the FIC index [4, 14] was 0.129 and the Results [4, 14] was “Synergistic”. The “Compound A MIC in combination” value ([4]; strain No. 6) was 0.06 µg/mL, the FIC index [4, 15] was 0.254 and the Results [4, 15] was “Synergistic”. For the same compound, the “Compound A MIC in combination” value ([4]; strain No. 7) was 0.06 µg/mL, the FIC index [4, 16] was 0.133 and the Results [4, 16] was “Synergistic”. For the same compound, the “Compound A MIC in combination” value ([4]; strain No. 8) was 0.06 µg/mL, the FIC index [4, 17] was 0.133 and the Results [4, 17] was “Synergistic”. For the same compound, the “Compound A MIC in combination” value ([4]; strain No. 9) was 0.06 µg/mL, the FIC index [4, 18] was 0.129 and the Results [4, 18] was “Synergistic”. The “Compound A MIC in combination” value ([4]; strain No. 10) was 0.06 µg/mL.

`COc1c(N2C[C@@H](C)C[C@H](N)C2)ccc2c(=O)c(C(=O)O)cn(C3CC3)c12` [Nemofloxacin] was tested, and the MIC [1, 19] was > 64 µg/mL.

Work on `C[C@H]1COc2c(N3CCN(C)CC3)c(F)cc3c(=O)c(C(=O)O)cn1c23` [Levofloxacin] yielded an MIC [1, 19] of 32 µg/mL.
